{
  "source": "paper PMC10016340",
  "about": "(Chemical Science, 2023)",
  "key": {"[1]": {"biological_target": "αSO (Homo sapiens, UniProt P37840)", "test": "biochemical", "type": "binding", "settings": "for αSO binding signal in sandwich ELISA vs positive control: 2 mM compound, 1 μg mL^−1 αSOs"}, "[2]": {"test": "Ultracentrifugation for compound-vesicle binding", "settings": "100 μM compound, 1 mM DOPG vesicles, 30 min, ultracentrifugation 1 h 40 000 rpm"}, "[3]": {"biological_target": "α-syn (Homo sapiens, UniProt P37840)", "test": "ThT aggregation kinetics of α-syn", "type": "biochemical", "settings": "for Effect on α-syn fibril formation (ThT, words): 300 rpm, 37 °C"}, "[4]": {"biological_target": "αSOs-Alexa488 binding to DOPG liposomes (Homo sapiens, UniProt P37840)", "test": "FIDA αSO-vesicle binding inhibition assay", "settings": "5 μM compound, 50 μM DOPG; αSO-vesicle complex without compound ∼60 nm"}, "[5]": {"biological_target": "T1, αSOs-Alexa488 (Homo sapiens, UniProt P37840)", "test": "FIDA effect of lead compounds on free αSOs", "type": "binding", "settings": "150 nM αSO, 5 μM compound; 13% without compound"}, "[6]": {"biological_target": "T2, αSO (α-synuclein oligomers) (Homo sapiens, UniProt P37840)", "test": "Membrane permeabilization", "type": "biochemical", "settings": "for Response in dose-response calcein assay: even at 20 μM"}, "[7]": {"biological_target": "T2, αSO (α-synuclein oligomers)", "settings": "cited from earlier work"}, "[8]": {"test_system": "human neuroblastoma cells", "settings": "by inhibiting interactions with lipid membranes; cited from earlier work"}, "[9]": {"biological_target": "T1, αSOs-Alexa488", "test": "FIDA binding of αSOs to neuronal proteins in solution"}},
  "note": "Where two headings read alike, the source gives them in different places.",
  "data": [
    {"molecule": "[H]/N=C(\\N/C(=N/[H])NCCCCCCNC(=N)NC(=N)Nc1ccc(Cl)cc1)Nc1ccc(Cl)cc1", "note": "[A1, Chlorhexidine]", "values": [
      {"measurement": "Kd", "setting": "[1]", "result": "130 ± 40", "unit": "µM"},
      {"measurement": "αSO binding signal in sandwich ELISA vs positive control", "setting": "[1]", "result": "decrease in binding"},
      {"measurement": "Percentage of compound bound to DOPG vesicles (pelleted)", "setting": "[2]", "result": "60–95%"},
      {"measurement": "Decrease of half-time of fibrillation compared to α-syn alone", "setting": "[3]; 20 μM α-syn, 20 μM compound", "result": "~2", "unit": "fold"},
      {"measurement": "Apparent size (Rh) of αSOs-Alexa488 in the presence of DOPG liposomes and compound", "setting": "[4]", "result": "~10", "unit": "nm"}
    ]},
    {"molecule": "Cc1cc(C(C)(C)CC(C)(C)C)ccc1OCCOCC[N+](C)(C)Cc1ccccc1", "note": "[A2, Methyl benzethonium]", "values": [
      {"measurement": "Kd", "setting": "[1]", "result": "120 ± 90", "unit": "µM"},
      {"measurement": "αSO binding signal in sandwich ELISA vs positive control", "setting": "[1]", "result": "decrease in binding"},
      {"measurement": "Percentage of α-syn monomers in αSO sample", "setting": "[5]", "result": 23, "unit": "%"},
      {"measurement": "Percentage of compound bound to DOPG vesicles (pelleted)", "setting": "[2]", "result": "60–95%"},
      {"measurement": "Decrease of half-time of fibrillation compared to α-syn alone", "setting": "[3]; 20 μM α-syn, 20 μM compound", "result": "~2", "unit": "fold"},
      {"measurement": "Apparent size (Rh) of αSOs-Alexa488 in the presence of DOPG liposomes and compound", "setting": "[4]", "result": "~10", "unit": "nm"}
    ]},
    {"molecule": "CC(C)(C)CC(C)(C)c1ccc(OCCOCC[N+](C)(C)Cc2ccccc2)cc1", "note": "[A3, Benzethonium]", "values": [
      {"measurement": "Percentage of compound bound to DOPG vesicles (pelleted)", "setting": "[2]", "result": "60–95%"}
    ]},
    {"molecule": "C=C1c2cccc(O)c2C(=O)C2=C(O)[C@]3(O)C(=O)C(C(N)=O)=C(O)[C@@H](N(C)C)[C@@H]3[C@@H](O)[C@H]12", "note": "[A5, Metacycline]", "values": [
      {"measurement": "αSO binding signal in sandwich ELISA vs positive control", "setting": "[1]", "result": "slightly higher absorption than the positive control"},
      {"measurement": "Response in dose-response calcein assay", "setting": "[6]", "result": "failed to show any response"},
      {"measurement": "Effect on α-syn fibril formation (ThT, words)", "setting": "[3]; 20 μM α-syn, 20 μM compound", "result": "completely inhibited fibril formation"}
    ]},
    {"molecule": "COc1ccccc1CNCCCCCCNCCCCCCCCNCCCCCCNCc1ccccc1OC", "note": "[A6, Methoctramine]", "values": [
      {"measurement": "αSO binding signal in sandwich ELISA vs positive control", "setting": "[1]", "result": "to a smaller extent"},
      {"measurement": "Percentage of compound bound to DOPG vesicles (pelleted)", "setting": "[2]", "result": "60–95%"},
      {"measurement": "IC50", "setting": "[6]", "result": 0.32, "unit": "µM"},
      {"measurement": "Effect on lag phase of α-syn aggregation", "setting": "[3]; 20 μM α-syn, 20 μM compound", "result": "modestly increased the lag phase"},
      {"measurement": "Apparent size (Rh) of αSOs-Alexa488 in the presence of DOPG liposomes and compound", "setting": "[4]", "result": "~10", "unit": "nm"}
    ]},
    {"molecule": "CC(C)=CC[C@@H](O)C1=CC(=O)c2c(O)ccc(O)c2C1=O", "note": "[A7, Shikonin]", "values": [
      {"measurement": "αSO binding signal in sandwich ELISA vs positive control", "setting": "[1]", "result": "slightly higher absorption than the positive control"},
      {"measurement": "Response in dose-response calcein assay", "setting": "[6]", "result": "failed to show any response"}
    ]},
    {"molecule": "N.N.[Cl][Pt][Cl]", "note": "[A8, Cisplatin]", "values": [
      {"measurement": "Percentage of compound bound to DOPG vesicles (pelleted)", "setting": "[2]", "result": "0–2%"}
    ]},
    {"molecule": "N.N.O=C([O-])C1(C(=O)[O-])CCC1.[Pt+2]", "note": "[A9, Carboplatin]", "values": [
      {"measurement": "Response in dose-response calcein assay", "setting": "[6]", "result": "failed to show any response"}
    ]},
    {"molecule": "O=C(O[C@@H]1Cc2c(O)cc(O)cc2O[C@@H]1c1cc(O)c(O)c(O)c1)c1cc(O)c(O)c(O)c1", "note": "[EGCG]", "values": [
      {"measurement": "Percentage of α-syn monomers in αSO sample", "setting": "[5]", "result": 22, "unit": "%"},
      {"measurement": "Inhibition of calcein release", "setting": "[7]; positive control", "result": "completely inhibits calcein release"},
      {"measurement": "Percentage of compound bound to DOPG vesicles (pelleted)", "setting": "[2]", "result": "0–2%"},
      {"measurement": "Effect on α-syn fibril formation (ThT, words)", "setting": "[3]; 20 μM α-syn, 20 μM compound", "result": "completely inhibited fibril formation"},
      {"measurement": "Apparent size (Rh) of αSOs-Alexa488 in the presence of DOPG liposomes and compound", "setting": "[4]", "result": 50, "unit": "nm"}
    ]},
    {"molecule": "C/C=C1/[C@H](O[C@@H]2O[C@H](CO)[C@@H](O)[C@H](O)[C@H]2O)OC=C(C(=O)OC)[C@H]1CC(=O)OCCc1ccc(O)c(O)c1", "note": "[oleuropein]", "values": [
      {"measurement": "Inhibition of calcein release", "setting": "[7]; negative control", "result": "weak or no inhibitory effect"}
    ]},
    {"molecule": "CC(C)[C@@H](CC[C@@H](C)[C@H]1CC[C@H]2[C@@H]3[C@H](O)C[C@H]4C[C@@H](NCCCNCCCCN)CC[C@]4(C)[C@H]3CC[C@]12C)OS(=O)(=O)O", "note": "[squalamine]", "values": [
      {"measurement": "Suppression of αSO toxicity", "setting": "[8]", "result": "completely suppress the toxicity of αSOs"}
    ]},
    {"molecule": "Cofilin-1 [Cfl1]", "values": [
      {"measurement": "Change in Rh of αSOs-Alexa488 on titration with ligand", "setting": "[9]; up to 150 μM ligand, in solution", "result": "little change in Rh"},
      {"measurement": "Effect of protein ligand on α-syn aggregation (ThT, words)", "setting": "[3]; 20 μM α-syn monomer, 1 μM ligand", "result": "dramatic reduction in aggregation"}
    ]},
    {"molecule": "Serine-tRNA ligase [SerRS]", "values": [
      {"measurement": "Rh of αSOs-Alexa488 after binding to ligand", "setting": "[9]; 100–150 μM ligand, αSO alone 10 nm", "result": "~12.5", "unit": "nm"},
      {"measurement": "Reduction of half-time of α-syn fibrillation", "setting": "[3]; 20 μM α-syn, 1 μM ligand", "result": "more than 3 fold"}
    ]}
  ]
}
